Measurements published in PubChem BioAssay (NCI).
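Test compounds were applied to cells in 96-well plates for 48 hours at 5 doses. TGI denotes the concentration required for complete inhibition of growth.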

Experiments:
Test in all cases: NCI tumour cell line growth inhibition, 48 h
RPMI-8226 leukemia = system: RPMI-8226 leukemia
TK-10 renal = system: TK-10 renal
NCI-H226 lung = system: NCI-H226 lung
HCC-2998 colon = system: HCC-2998 colon
HCT-116 colon = system: HCT-116 colon
OVCAR-8 ovarian = system: OVCAR-8 ovarian
MDA-MB-435 = system: MDA-MB-435
HT29 colon = system: HT29 colon
IGROV1 ovarian = system: IGROV1 ovarian
UO-31 renal = system: UO-31 renal

Row | SMILES | TGI (RPMI-8226 leukemia) [µM] | TGI (TK-10 renal) [µM] | TGI (NCI-H226 lung) [µM] | TGI (HCC-2998 colon) [µM] | TGI (HCT-116 colon) [µM] | TGI (OVCAR-8 ovarian) [µM] | TGI (MDA-MB-435) [µM] | TGI (HT29 colon) [µM] | TGI (IGROV1 ovarian) [µM] | TGI (UO-31 renal) [µM]
1 | O=C1CSC(c2ccc(Cl)cc2)N1c1ccc(-n2c(-c3ccccc3)nc3ccccc3c2=O)cc1 (stereo not given) | > 100 | > 100 | > 100 | > 100 | > 100 | > 100 | > 100 | > 100 | > 100 | > 100
2 | CCC1(CC)C(=O)N(C(=O)c2ccc(Cl)cc2)N(C(=O)c2ccccc2Cl)C1=O | 78.9 | > 100 | 31.5 | > 100 | > 100 | > 100 | 43.9 | 22.6 | 16.3 | > 100
3 | O=C1NC(N2CCCC(CO)C2)=N/C1=C\c1ccc(O)cc1 (stereo not given) | > 100 | > 100 | > 100 | > 100 | > 100 | > 100 | > 100 | > 100 | > 100 | > 100
4 | C[N+]12C=CC=C1C(N1CCCC1)c1sc(-c3ccc(Cl)cc3)cc12 (stereo not given) | 57.7 | 40.7 | 35.3 | 29.2 | 29.6 | 33.5 | 29.1 | 34.3 | 39 | > 100
5 | CN(C)CCCN1c2ccc3ccccc3c2Sc2cccc(Cl)c21 | 3.85 | 5.67 | 18.7 | 2.96 | 14 | 18 | 3.88 | 4.56 | 5.85 | 12
6 | COc1cc(OC)cc(N(C)Cc2cnc3nc(N)nc(N)c3c2C)c1 | > 100 | > 100 | > 100 | > 100 | > 100 | > 100 | > 100 | > 100 | > 100 | > 100
7 | O=C(C(=O)n1ccc2ccccc21)c1c[nH]c2ccccc12 | > 10 | > 10 | > 10 | > 10 | > 10 | > 10 | > 10 | > 10 | > 10 | > 10
8 | Clc1ccc(CCN2CCN(CCCc3ccccc3)CC2)cc1Cl | 55.2 | 30.1 | 38 | 31.3 | 28.4 | 30.4 | 31.1 | 26.9 | 31.3 | 24.7
9 | CCN1CCc2sc3[nH]c(=S)n(C)c(=O)c3c2C1 | > 100 | > 100 | > 100 | > 100 | > 100 | > 100 | > 100 | > 100 | > 100 | > 100
10 | O=c1n(CCO)nc2n1CCCN2 | > 100 | > 100 | > 100 | > 100 | > 100 | > 100 | > 100 | > 100 | > 100 | > 100
11 | Cc1[nH]c(=O)nc2c1C(=O)N(C(C)C)C(NC(C)C)S2 (stereo not given) | > 100 | > 100 | > 100 | > 100 | > 100 | > 100 | > 100 | > 100 | > 100 | > 100
12 | COc1ccc(N=Nc2ccc3oc(=O)c(C(=O)Nc4ccc(OC)cc4)cc3c2)cc1 | 67.2 | > 100 | 32.8 | 45.3 | 23.8 | 37.8 | 54.8 | 55.5 | 44 | 62.4
13 | Clc1ccc(CCn2ccc3ccccc32)c(Cl)c1 | > 100 | > 100 | > 100 | > 100 | > 100 | > 100 | > 100 | > 100 | > 100 | > 100
14 | CC(C)(C)C(=O)C(C#N)C(=O)C(C)(C)C | > 100 | > 100 | > 100 | > 100 | > 100 | > 100 | > 100 | > 100 | > 100 | > 100
15 | CN(C)CCCNc1ccc2nnn3c4ccc([N+](=O)[O-])cc4c(=O)c1c23 | 7.31 | 7.95 | 3.02 | 10.4 | 12.3 | 5.38 | 12.3 | 7.11 | 13.3 | 9.5
16 | CCOc1c(OC)cc(CNNc2nccs2)cc1OC | > 100 | > 100 | > 100 | > 100 | > 100 | > 100 | > 100 | > 100 | > 100 | > 100
17 | COc1cccc(C(=O)C(O)c2cccc(OC)c2OC)c1OC (stereo not given) | > 100 | > 100 | > 100 | > 100 | > 100 | > 100 | > 100 | > 100 | > 100 | > 100
18 | CC(C)(C)OC(=O)N1CC(COS(C)(=O)=O)c2ccc(O)cc21 (stereo not given) | 3.96 | 8.76 | 4.67 | 0.991 | 10.3 | 4.51 | 3.21 | 10.6 | 12.1 | 5.26
